Results on 69 compounds are retold here after patent publication US4153709A, “N-Heterocyclic ureas as immune regulants” (Eli Lilly and Company, priority 1977, dated 1979).

Molecules are shown by their SMILES.

The assay concerns antibody response to sheep blood cells (hemaglutination titer). In words: Immune regulating test: suppression of hemaglutination titer by 4-fold factor in mice (i.p. drug, i.p. sheep blood cells), Tables 1-15. It is filed as in vivo, Swiss mice. As to conditions: Mus musculus, ip, 192 h, × 3, intraperitoneal, minimum dose to suppress the hemaglutination titer by a 4-fold factor, 8 days after antigen, read-out: Immuno-Suppressant ED4-Fold. Here is the method:
The ability of compounds according to the above formulas to alter immune mechanisms in a host animal was measured by their activity according to the following test. Groups of five 20-gram Swiss mice were injected intraperitoneally with standardized suspensions of an antigen--in this instance sheep blook cells. […] Eight days after injection of the antigen, the mice were bled and the sera from each group pooled. Antibody determinations were made on the serum pools by a hemaglutination pattern procedure and comparisons made between treated and control animals. In Tables 1-18 which follow, the activity of the compounds listed therein is given in terms of the minimum dose of drug necessary to suppress the hemaglutination titer by a 4-fold factor in the treated mice as compared with control titers.
For `Cc1cc2nc(NC(=O)Nc3cc(Cl)ccc3Cl)sc2cc1C`, the minimal effective dose was < 12.5 mg/kg.

Regarding `Cc1cc2nc(NC(=O)Nc3ccc(Cl)c(Cl)c3)sc2cc1C`, the minimal effective dose is 50 mg/kg.

`Cc1cc2nc(NC(=O)Nc3cccc(Cl)c3)sc2cc1C`: the minimal effective dose is 100 mg/kg.

With `Cc1cc2nc(NC(=O)Nc3cccc(C(F)(F)F)c3)sc2cc1C`, the minimal effective dose was found to be 25 mg/kg.

For the compound `Cc1cc2nc(NC(=O)Nc3ccccc3Cl)sc2cc1C`, the minimal effective dose was < 100 mg/kg.

As for `Cc1cc2nc(NC(=O)Nc3ccccc3F)sc2cc1C`, the minimal effective dose was < 1.6 mg/kg.

Consider `Cc1cc2nc(NC(=O)Nc3ccc(Cl)cc3)sc2cc1C`, for which the minimal effective dose amounted to 25 mg/kg.

In the case of `Cc1cc2nc(NC(=O)Nc3ccc(F)cc3)sc2cc1C`, the minimal effective dose came out at 12.5 mg/kg.

Consider `O=C(Nc1ccc(Cl)c(Cl)c1)Nc1nc2ccccc2[nH]1` [Table 1: 3,4-dichlorophenyl, H], for which the minimal effective dose worked out at 0.8 mg/kg.

In the case of `O=C(Nc1cccc(Cl)c1)Nc1nc2ccccc2[nH]1` [Table 1: m-chlorophenyl, H], the minimal effective dose worked out at 3.1 mg/kg.

For the compound `O=C(Nc1cccc(C(F)(F)F)c1)Nc1nc2ccccc2[nH]1` [Table 1: m-trifluoromethylphenyl, H], the minimal effective dose stood at 100 mg/kg.

Turning to `O=C(Nc1nc2ccccc2[nH]1)Nc1ccccc1Cl` [Table 1: o-chlorophenyl, H], the minimal effective dose is 12.5 mg/kg.

As to `O=C(Nc1nc2ccccc2[nH]1)Nc1ccccc1F` [Table 1: o-fluorophenyl, H], the minimal effective dose was determined as 1.6 mg/kg.

On to `Cc1ccccc1NC(=O)Nc1nc2ccccc2[nH]1` [Table 1: o-tolyl, H], for which the minimal effective dose is 25 mg/kg.

Turning to `O=C(Nc1ccc(Br)cc1)Nc1nc2ccccc2[nH]1` [Table 1: p-bromophenyl, H], the minimal effective dose came to 100 mg/kg.

With `O=C(Nc1ccc(Cl)cc1)Nc1nc2ccccc2[nH]1` [Table 1: p-chlorophenyl, H], the minimal effective dose was found to be 12.5 mg/kg.

Turning to `O=C(Nc1ccc(F)cc1)Nc1nc2ccccc2[nH]1` [Table 1: p-fluorophenyl, H], the minimal effective dose was determined as 6.2 mg/kg.

On to `Cc1ccc(NC(=O)Nc2nc3ccccc3[nH]2)cc1` [Table 1: p-tolyl, H], for which the minimal effective dose stood at 6.2 mg/kg.

As for `O=C(Nc1nc2ccccc2[nH]1)Nc1cccc2ccccc12` [Table 1: α-naphthyl, H, N-(2-Benzimidazolyl)-N'-naphthylurea], the minimal effective dose came to 3.1 mg/kg.

As to `Cc1cccc(NC(=O)Nc2nc3cc(Cl)ccc3[nH]2)c1` [Table 2: m-tolyl], the minimal effective dose turned out to be 25 mg/kg.

For `COc1ccccc1NC(=O)Nc1nc2cc(Cl)ccc2[nH]1` [Table 2: o-anisyl], the minimal effective dose is < 6.2 mg/kg.

As for `O=C(Nc1nc2cc(Cl)ccc2[nH]1)Nc1ccccc1Cl` [Table 2: o-chlorophenyl], the minimal effective dose amounted to 100 mg/kg.

As for `O=C(Nc1nc2cc(Cl)ccc2[nH]1)Nc1ccccc1F` [Table 2: o-fluorophenyl], the minimal effective dose is < 100 mg/kg.

Regarding `Cc1ccccc1NC(=O)Nc1nc2cc(Cl)ccc2[nH]1` [Table 2: o-tolyl], the minimal effective dose came to 100 mg/kg.

Regarding `O=C(Nc1ccc(Cl)cc1)Nc1nc2cc(Cl)ccc2[nH]1` [Table 2: p-chlorophenyl], the minimal effective dose worked out at 6.2 mg/kg.

Turning to `O=C(Nc1ccc(F)cc1)Nc1nc2cc(Cl)ccc2[nH]1` [Table 2: p-fluorophenyl], the minimal effective dose is < 12.5 mg/kg.

As to `Cc1ccc(NC(=O)Nc2nc3cc(Cl)ccc3[nH]2)cc1` [Table 2: p-tolyl], the minimal effective dose was 50 mg/kg.

Turning to `O=C(Nc1ccccc1)Nc1nc2cc(Cl)ccc2[nH]1` [Table 2: phenyl], the minimal effective dose was 25 mg/kg.

For the compound `O=C(Nc1nc2cc(Cl)ccc2[nH]1)Nc1cccc2ccccc12` [Table 2: α-naphthyl], the minimal effective dose came to 6.2 mg/kg.

In the case of `CCOC(=O)c1ccc2[nH]c(NC(=O)Nc3cccc(Cl)c3)nc2c1` [Table 3: m-chlorophenyl], the minimal effective dose was 50 mg/kg.

With `CCOC(=O)c1ccc2[nH]c(NC(=O)Nc3cccc(C)c3)nc2c1` [Table 3: m-tolyl], the minimal effective dose was < 12.5 mg/kg.

Consider `CCOC(=O)c1ccc2[nH]c(NC(=O)Nc3cccc(C(F)(F)F)c3)nc2c1` [Table 3: m-trifluoromethylphenyl], for which the minimal effective dose came out at 100 mg/kg.

For `CCOC(=O)c1ccc2[nH]c(NC(=O)Nc3ccccc3Cl)nc2c1` [Table 3: o-chlorophenyl], the minimal effective dose came to 0.4 mg/kg.

Regarding `CCOC(=O)c1ccc2[nH]c(NC(=O)Nc3ccccc3F)nc2c1` [Table 3: o-fluorophenyl], the minimal effective dose is < 6.2 mg/kg.

For the compound `CCOC(=O)c1ccc2[nH]c(NC(=O)Nc3ccccc3C)nc2c1` [Table 3: o-tolyl], the minimal effective dose came out at 25 mg/kg.

Take `CCOC(=O)c1ccc2[nH]c(NC(=O)Nc3ccc(Cl)cc3)nc2c1` [Table 3: p-chlorophenyl]: the minimal effective dose stood at 50 mg/kg.

In the case of `CCOC(=O)c1ccc2[nH]c(NC(=O)Nc3ccc(F)cc3)nc2c1` [Table 3: p-fluorophenyl], the minimal effective dose turned out to be 25 mg/kg.

As for `CCOC(=O)c1ccc2[nH]c(NC(=O)Nc3ccc(C)cc3)nc2c1` [Table 3: p-tolyl], the minimal effective dose worked out at 100 mg/kg.

`CCOC(=O)c1ccc2[nH]c(NC(=O)Nc3ccccc3)nc2c1` [Table 3: phenyl]: the minimal effective dose was < 25 mg/kg.

Turning to `CCOC(=O)c1ccc2[nH]c(NC(=O)Nc3cccc4ccccc34)nc2c1` [Table 3: α-naphthyl], the minimal effective dose is 6.2 mg/kg.

Take `O=C(Nc1cccc(Cl)c1)Nc1nc2cc(C(F)(F)F)ccc2[nH]1` [Table 4: am-chlorophenyl, CF3]: the minimal effective dose is 50 to 200 mg/kg.

Regarding `O=C(Nc1ccccc1)Nc1nc2cc(C(F)(F)F)ccc2[nH]1` [Table 4: phenyl, CF3], the minimal effective dose is 12.5 mg/kg.

Take `Cc1ccc2[nH]c(NC(=O)Nc3ccccc3)nc2c1` [Table 4: phenyl, CH3]: the minimal effective dose was found to be 100 mg/kg.

For `O=C(Nc1nc2cc(C(F)(F)F)ccc2[nH]1)Nc1cccc2ccccc12` [Table 4: α-naphthyl, CF3], the minimal effective dose is < 50 mg/kg.

With `Cc1ccc2[nH]c(NC(=O)Nc3cccc4ccccc34)nc2c1` [Table 4: α-naphthyl, CH3], the minimal effective dose was < 0.4 mg/kg.

Consider `Cc1cc2nc(NC(=O)Nc3ccc(F)cc3F)[nH]c2cc1C` [Table 5: 2,4-difluorophenyl, CH3, CH3], for which the minimal effective dose amounted to 0.4 mg/kg.

As for `Cc1cc2nc(NC(=O)Nc3cc(Cl)ccc3Cl)[nH]c2cc1C` [Table 5: 2,5-dichlorophenyl, CH3, CH3], the minimal effective dose was < 25 mg/kg.

For the compound `Cc1cc2nc(NC(=O)Nc3ccc(Cl)c(Cl)c3)[nH]c2cc1C` [Table 5: 3,4-dichlorophenyl, CH3, CH3], the minimal effective dose was determined as 100 mg/kg.

Regarding `Cc1cc2nc(NC(=O)Nc3cccc(Cl)c3)[nH]c2cc1C` [Table 5: m-chlorophenyl, CH3, CH3], the minimal effective dose was determined as 800 mg/kg.

With `Cc1cccc(NC(=O)Nc2nc3cc(C)c(C)cc3[nH]2)c1` [Table 5: m-tolyl, CH3, CH3], the minimal effective dose was 12.5 mg/kg.

Turning to `Cc1cc2nc(NC(=O)Nc3ccccc3F)[nH]c2cc1C` [Table 5: o-fluorophenyl, CH3, CH3], the minimal effective dose was determined as 100 mg/kg.

Regarding `Cc1cc2nc(NC(=O)Nc3ccccc3C)[nH]c2cc1C` [Table 5: o-tolyl, CH3, CH3], the minimal effective dose is 12.5 mg/kg.

Turning to `COc1ccc(NC(=O)Nc2nc3cc(C)c(C)cc3[nH]2)cc1` [Table 5: p-anisyl, CH3, CH3], the minimal effective dose came to 12.5 mg/kg.

Turning to `Cc1cc2nc(NC(=O)Nc3ccc(Br)cc3)[nH]c2cc1C` [Table 5: p-bromophenyl, CH3, CH3], the minimal effective dose amounted to 12.5 mg/kg.

In the case of `Cc1cc2nc(NC(=O)Nc3ccc(Cl)cc3)[nH]c2cc1C` [Table 5: p-chlorophenyl, CH3, CH3], the minimal effective dose amounted to 12.5 mg/kg.

Take `Cc1ccc(NC(=O)Nc2nc3cc(C)c(C)cc3[nH]2)cc1` [Table 5: p-tolyl, CH3, CH3]: the minimal effective dose came to 3 mg/kg.

As for `Cc1cc2nc(NC(=O)Nc3ccccc3)[nH]c2cc1C` [Table 5: phenyl, CH3, CH3], the minimal effective dose turned out to be 12.5 mg/kg.

On to `O=C(Nc1ccccc1)Nc1nc2cc(Cl)c(Cl)cc2[nH]1` [Table 5: phenyl, Cl, Cl], for which the minimal effective dose worked out at 12.5 mg/kg.

As for `Cc1cc2nc(NC(=O)Nc3cccc4ccccc34)[nH]c2cc1C` [Table 5: α-naphthyl, CH3, CH3], the minimal effective dose was 50 mg/kg.

Take `O=C(Nc1nc2cc(Cl)c(Cl)cc2[nH]1)Nc1cccc2ccccc12` [Table 5: α-naphthyl, Cl, Cl]: the minimal effective dose was > 12.5 mg/kg.

As for `O=C(Nc1nc2c([N+](=O)[O-])cccc2[nH]1)Nc1ccccc1F` [Table 6: 4(7), o-fluorophenyl], the minimal effective dose came out at 3.1 mg/kg.

Regarding `O=C(Nc1ccccc1)Nc1nc2c([N+](=O)[O-])cccc2[nH]1` [Table 6: 4(7), phenyl], the minimal effective dose turned out to be 25 mg/kg.

Take `CN(C(=O)Nc1cccc(Cl)c1)c1nc2ccccc2[nH]1` [Table 7: m-chlorophenyl, H]: the minimal effective dose was determined as 25 mg/kg.

For the compound `CN(C(=O)Nc1ccc(Cl)cc1)c1nc2ccccc2[nH]1` [Table 7: p-chlorophenyl, H], the minimal effective dose was found to be 50 mg/kg.

With `CN(C(=O)Nc1ccccc1)c1nc2ccccc2[nH]1` [Table 7: phenyl, H], the minimal effective dose worked out at 50 mg/kg.

In the case of `CN(C(=O)Nc1cccc2ccccc12)c1nc2ccccc2[nH]1` [Table 7: α-naphthyl, H], the minimal effective dose was 25 mg/kg.

Regarding `Cn1c(NC(=O)Nc2cccc(Cl)c2)nc2ccccc21` [Table 8: m-chlorophenyl, methyl], the minimal effective dose turned out to be 6.2 mg/kg.

Take `Cn1c(NC(=O)Nc2ccc(Cl)cc2)nc2ccccc21` [Table 8: p-chlorophenyl, methyl]: the minimal effective dose was > 50 mg/kg.

Regarding `Cn1c(NC(=O)Nc2ccccc2)nc2ccccc21` [Table 8: phenyl, methyl], the minimal effective dose is 3.1 mg/kg.
